The text below walks through data of ChEMBL document CHEMBL1157539, “Thousands of chemical starting points for antimalarial lead identification” (Nature, 2010).

The assay deals with Plasmodium falciparum. Briefly: GSK_TCMDC: Inhibition of Plasmodium falciparum 3D7 in whole erythrocytes, using parasite LDH activity as an index of growth. The format is functional, organism-based. The conditions noted are these: Plasmodium falciparum, 3D7.
For `O=C(Cn1c(CCc2cccc(F)c2F)nc(=O)c2ccccc21)N(Cc1ccc(-c2ccc(C(F)(F)F)cc2)cc1)C1CCN(C2=NCCS2)CC1`, the XC50 was 1330 nM.

Consider `Cc1ccc(OCC2CCN(c3ncc(C(=O)NC4CC4)cc3Cl)CC2)cc1`, for which the XC50 was 1090 nM.

`Cc1cc2c(NC(=O)NC3CCN(Cc4ccc(Cl)c(Cl)c4)CC3)cccc2cn1` had an XC50 of 681 nM.

`CCN1CCc2nc3ccccc3c(C(=O)Nc3ccc(C#N)cc3)c2C1` showed an XC50 of 780 nM.

For the molecule `O=C(Nc1ccc(Cl)c(C(F)(F)F)c1)N[C@H]1CCN(CCCCCNC(=O)C2CC2c2ccc(Cl)c(Cl)c2)C1` (some centres undefined), the XC50 was 1080 nM.

In turn, `O=C(Nc1ccc(-c2cccc(-c3nc4ccccc4[nH]3)c2)cc1)Nc1ccc2c(c1)OCO2` registered an XC50 of 254 nM.

In turn, `CN1CCc2cc(CN3CC4(C)CC3CC(C)(C)C4)c(O)cc2C(c2ccccc2)C1` (centres undefined) had an XC50 of 720 nM.

Regarding `COc1cc(C(=O)Nc2ccc(-c3nc4ccccc4[nH]3)cc2)cc(OC)c1OC`, the XC50 amounted to 982 nM.

Consider `O=C(/C=C/c1ccc(Cl)cc1)NCCCCCN1CCN(C(=O)Nc2ccc(Cl)c(C(F)(F)F)c2)CC1`, for which the XC50 stood at 920 nM.

`O=C(n1c(-c2cc3ccccc3n2C(=O)C(F)(F)F)cc2ccccc21)C(F)(F)F` displayed an XC50 of 878 nM.

Regarding `CC(=O)Nc1ccc(S(=O)(=O)Nc2c(C)cc(Cc3cnc(N)nc3N)cc2C)cc1`, the XC50 was 1000 nM.

`Cc1[nH]c(C)c(-c2ccc(OCCSc3ccncc3)cc2)c(=O)c1Br` had an XC50 of 393 nM.

Regarding `O=C(NCCc1ccccc1)N(Cc1cccc(-c2ccc(CNCc3ccc4c(c3)OCO4)cc2)c1)C1CCN(Cc2ccccc2)CC1`, the XC50 came to 661 nM.

`Cc1cccc2nc(-c3ccc(-c4cccc(CNCC5CCCO5)c4)s3)[nH]c12` (centres undefined) yielded an XC50 of 972 nM.

`O=C(NC1CCN(CCN2CCC(c3ccccc3C(F)(F)F)CC2)CC1)c1ccc(-c2ccc(Cl)cc2)cc1` gave an XC50 of 714 nM.

Consider `CNC(=O)c1cnc(Nc2ccc(N3CCOCC3)cc2)nc1Nc1cccc(O)c1`, for which the XC50 stood at 808 nM.

Regarding `COc1cc2nc(Nc3ccc4c(c3)OCCO4)nc(N)c2cc1OC`, the XC50 came out at 469 nM.

`O=[N+]([O-])c1ccc2nc(Nc3ccc(Cl)c(Cl)c3)c(Nc3ccc(Cl)c(Cl)c3)nc2c1`: the XC50 was 793 nM.

`CCOC(=O)c1cnc2c(OC)cc(OC)c(Cl)c2c1Nc1ccccc1` displayed an XC50 of 871 nM.

Consider `CCNc1cc(C(=O)N[C@@H](Cc2ccccc2)[C@H](O)CNC2(CC)CCCCC2)cc(N2CCCCS2(=O)=O)c1`, for which the XC50 was determined as 265 nM.

The molecule `Nc1nc2c(c(=O)[nH]1)CN(S(=O)(=O)c1ccc(C(=O)N[C@@H](CCC(=O)O)C(=O)O)cc1)CC2` displayed an XC50 of 146 nM.

`CN1CCC(C(=O)N(Cc2ccc(-c3ccc(CNCCc4ccccc4)cn3)cc2)C2CCN(Cc3ccccc3)CC2)CC1` had an XC50 of 787 nM.

In turn, `Nc1c2c(nc3cc(NC(=O)c4ccc([N+](=O)[O-])cc4)ccc13)CCCC2` showed an XC50 of 475 nM.

Consider `COc1ccccc1NC(=S)N/N=C/c1ccc(O)cc1O`, for which the XC50 is 1020 nM.

In turn, `Cc1nc2nc(N)nc(N)c2c(C)c1Cc1ccc([N+](=O)[O-])cc1` registered an XC50 of 438 nM.

In turn, `CCCCCCCCc1c(C)nc(C)c(C#N)c1O` returned an XC50 of 402 nM.

Consider `COc1ccc(-c2nc3c(N)nc(N)nc3nc2C(C)C)cc1`, for which the XC50 amounted to 188 nM.

On to `CN1CCCN(Cc2ccc(-c3ccc(NC(=O)c4ccc(C#N)cc4)cc3)cc2)CC1`, for which the XC50 was determined as 1020 nM.

Consider `COc1ccc2nc(C)cc(Nc3ccc(Oc4ccc5ccccc5c4Cl)c(Cl)c3)c2c1`, for which the XC50 is 501 nM.

Regarding `COc1ccc2ncc(F)c([C@H](O)CN3CCC(NCc4ccc5c(c4)OCCO5)CC3)c2c1`, the XC50 amounted to 152 nM.

`COc1ccc2nccc([C@@H](O)CN3CCC(NC/C=C/c4cccnc4)CC3)c2c1`: the XC50 turned out to be 622 nM.

`O=C(Nc1cccc(N2CCC(NCc3cccnc3)CC2)c1)c1cccc(C(F)(F)F)c1` returned an XC50 of 970 nM.

For `O=C(NC1CCN(c2ccnc3cc(Cl)ccc23)C1)c1ccc(C(F)(F)F)cc1` (centres undefined), the XC50 was 143 nM.

`CN(C)CCCn1cncc1-c1ccc2ncnc(Nc3ccc(OCc4ccccc4)cc3)c2c1` gave an XC50 of 524 nM.

In turn, `CCn1ncc(Cl)c1CN(C)S(=O)(=O)c1ccc(Br)cc1` had an XC50 of 1020 nM.

As for `CCN(CC)CCOc1ccc(C(O)(C#CC(O)(c2ccc(OCCN(CC)CC)cc2)c2ccc([N+](=O)[O-])cc2)c2ccc([N+](=O)[O-])cc2)cc1` (centres undefined), the XC50 is 1730 nM.

As to `O=C(c1cc(-c2ccccc2O)on1)N1CCN(C(c2ccccc2)c2ccccc2)CC1`, the XC50 is 335 nM.

In turn, `O=[N+]([O-])c1ccc(N/C(=N\c2ccccc2Br)NC2CCCc3ccccc32)c(O)c1` (centres undefined) returned an XC50 of 919 nM.

`COC(=O)c1ccc(CC(C)NCC(O)c2cc(Cl)c(N)c(Cl)c2)cc1` (centres undefined) had an XC50 of 877 nM.

In turn, `O=C(Nc1ccc(OC2CCN(Cc3ccc(F)cc3)C2)c(Cl)c1)c1ccsc1` (centres undefined) had an XC50 of 538 nM.

The molecule `Cc1cc(OCC2CCN(c3ncc(C(=O)Nc4ccccc4)cc3Cl)CC2)ccc1F` yielded an XC50 of 899 nM.

The molecule `Cc1cc(N[C@@H](Cc2ccccc2)C(=O)Nc2ccccc2)nc(NCCc2ccccc2)n1` gave an XC50 of 871 nM.

On to `O=C(Nc1ccc(Cl)cc1)c1cccc(S(=O)(=O)NC2CCN(CC3CCCCC3)C2)c1` (centres undefined), for which the XC50 amounted to 905 nM.

Molecule `COc1c(C2CCN(CCCCNC(=O)c3ccc(-c4ccc(Cl)cc4)c(O)c3)CC2)ccc2c1CCCC2` gave an XC50 of 226 nM.

Molecule `c1cc(CNCCc2ccncc2)cc(-c2cccc(-c3nc4ccccc4[nH]3)c2)c1` registered an XC50 of 146 nM.

As for `O=C(NCc1ccc(Cl)c(Cl)c1)c1ccc(C2CCCN(Cc3ccc4[nH]cnc4c3)C2)cc1` (centres undefined), the XC50 came out at 776 nM.

In the case of `CC(C)CCNC(=O)C1Cc2c([nH]c3cc(Cl)ccc23)C2(CCN(CCc3ccccc3)CC2)N1` (centres undefined), the XC50 amounted to 690 nM.

On to `Oc1c(C(Nc2nc3ccccc3s2)c2ccccc2)ccc2cccnc12` (centres undefined), for which the XC50 was 646 nM.

In turn, `CCOc1cc(C(=O)NCc2ccc(Cl)c(Cl)c2)ccc1-c1nc2cc(Cl)ccc2[nH]1` yielded an XC50 of 804 nM.

Consider `CCOc1ccc2c(=NN=Cc3cc(OC)c(OC)c(OC)c3)cc(C)[nH]c2c1`, for which the XC50 turned out to be 613 nM.

The molecule `O=C(N[C@@H](Cc1ccccc1)[C@H](O)CNC1CCOCC1)c1cc(C2CCCC2)cc(N2CCCCS2(=O)=O)c1` gave an XC50 of 202 nM.

`COc1cccc(C(=O)NCCOc2ccccc2)c1Oc1ccccc1` came in with an XC50 of 918 nM.

For the molecule `CN(c1ccc(NC(=O)Nc2cc(C(F)(F)F)ccc2F)cc1)c1ccnc(NCCN2CCOCC2)n1`, the XC50 came out at 512 nM.

In turn, `N#Cc1cccc(C(=O)Nc2ccc(-c3nc4ccccc4[nH]3)cc2)c1` returned an XC50 of 541 nM.

`CCCCCCN1CCC(NCc2ccc(CN(C)C)cc2)CC1` yielded an XC50 of 1270 nM.

On to `Oc1ccc(Cl)cc1CN1CCC(CCOC(c2ccccc2)c2ccc(Cl)cc2)CC1` (centres undefined), for which the XC50 worked out at 390 nM.

Turning to `Cc1cc(Nc2cccc(C(F)(F)F)c2)nc(NCc2ccccc2)n1`, the XC50 came out at 148 nM.

On to `N#Cc1cncc(-c2nc3c(N4CCC(Cc5ccccc5)CC4)cccc3n2C2CCNC2)c1` (centres undefined), for which the XC50 was determined as 987 nM.

For `COc1ccc(C2c3ccccc3-c3nc(N)nc(N)c3C2C)cc1` (centres undefined), the XC50 is 241 nM.

`COc1cccc(OC)c1CN1CCC(N(C)CCCCCCCCCN2CCC(OC(=O)Nc3ccccc3-c3ccccc3)CC2)CC1` came in with an XC50 of 319 nM.

As for `COc1ccc(CN2CCC(NCc3cccc(C(F)(F)F)c3)CC2)cc1`, the XC50 is 753 nM.

Regarding `Cc1cccc2nc(-c3ccc(-c4cccc(NC(=O)Cc5c[nH]cn5)c4)cc3)[nH]c12`, the XC50 amounted to 903 nM.

As for `Cc1sc2nc(CSc3ccccc3)nc(N3CCN(CC(=O)NC4CC4)CC3)c2c1C`, the XC50 is 462 nM.

Molecule `CCC[C@@H]([C@@H](CC1CCCCC1)C(=O)N[C@H](C(=O)Nc1ccccn1)[C@H](C)CC)N(O)C=O` registered an XC50 of 533 nM.

With `Cc1cccc2nc(-c3cccc(-c4cccc(CNCc5ccc(S(C)(=O)=O)cc5)c4)c3)[nH]c12`, the XC50 amounted to 299 nM.

With `O=C(N/C=N/c1cc([N+](=O)[O-])c(-c2ccncc2)n1-c1ccccc1)c1cccc(O)c1`, the XC50 was determined as 331 nM.

With `FC(F)(F)COc1c(CCNCCCCNCCc2ccc3ccccc3c2OCC(F)(F)F)ccc2ccccc12`, the XC50 was 348 nM.

Take `CCOC(=O)c1ccc(-c2c(C(F)(F)F)noc2-c2cc(CC)c(OC)cc2O)o1`: the XC50 was 206 nM.

On to `CON=C1CCC(Cn2ccnc2)(c2ccc(Cl)cc2Cl)CC1` (centres undefined), for which the XC50 amounted to 875 nM.

Molecule `COc1cccc(C(C)(C)NC[C@@H](O)[C@H](Cc2ccccc2)NC(=O)c2cc(C3CCCC3)cc(N3CCCCS3(=O)=O)c2F)c1` returned an XC50 of 28.9 nM.

For the molecule `COc1ccc(NC(=O)c2ccc(-c3nc(-c4ccccc4)cs3)cc2)cc1N1CCN(C)CC1`, the XC50 is 992 nM.

`c1ccc2c(c1)CN(CC1CCOCC1)CC1(CCN(Cc3c[nH]c4cnccc34)CC1)O2` yielded an XC50 of 1550 nM.

`O=C(Nc1ccccc1)Nc1ccc(-c2cccc(-c3nc4cc(C(F)(F)F)ccc4[nH]3)c2)cc1` displayed an XC50 of 734 nM.

`CCCCOc1ccc(-n2c(Nc3ccccc3)nc3cc(S(N)(=O)=O)ccc32)cc1` returned an XC50 of 887 nM.

For the molecule `O=C(Nc1ccc(OC2CCN(Cc3ccccc3)C2)c(Cl)c1)c1ccc(F)cc1` (centres undefined), the XC50 is 791 nM.

Molecule `Clc1ccc2c(N3CCN(CCN4CCN(c5ccnc6cc(Cl)ccc56)CC4)CC3)ccnc2c1` registered an XC50 of 128 nM.

Regarding `O=C(C=Cc1ccc(Cl)c(Cl)c1)NCCCCCN1CCC(CCCNC(=O)c2sc3ccccc3c2Cl)CC1`, the XC50 worked out at 398 nM.

The molecule `CCCN(CCC)C(=O)c1cc(C(=O)N[C@@H](Cc2ccccc2)[C@H](O)CNC(C)(C)c2cccc(OC)c2)cc(N2CCCCS2(=O)=O)c1` yielded an XC50 of 29.8 nM.

`CC(Cc1ccc(NC(=O)[C@H](C)NCCc2cccc(Cl)c2)cc1)NCCc1cccc(Cl)c1` (some centres undefined) displayed an XC50 of 663 nM.

For `CC1(C)N=C(N)N=C(N)N1c1ccc(Oc2ccc(Cl)cc2)c(Cl)c1`, the XC50 came out at 78.9 nM.

For `CO/C(=C\C=C\c1cc2cc(Cl)c(Cl)cc2[nH]1)C(=O)NC1CCN(CCOc2ccccc2)CC1`, the XC50 was 611 nM.

`COC(=O)c1cc(OC2CCOC2=O)cc2c1OC(C)(C)O2` (centres undefined) registered an XC50 of 806 nM.

As for `O=C(Nc1ccccc1)Nc1ccc(-n2ccc(C(F)(F)F)n2)cc1`, the XC50 is 632 nM.

The molecule `COc1c(C2CCN(CCCCNC(=O)c3ccc(-c4ccc(Cl)cc4)c(OCCN(C)C)c3)CC2)ccc2c1CCCC2` registered an XC50 of 190 nM.
